Reference: publication PMC13703928, “Substrate‐Dependent Crosslinking by the Cytochrome P450 From Aminopyruvatide Biosynthesis” (Angewandte Chemie (International Ed. in English), 2026)
“And” between values parts separate entries of the source, which are not always exact repeats. Identical values can stand only once. “Also recorded” adds a separate entry of the source.

How the values were obtained:
[1] = target: T1, papain (Carica papaya, UniProt P00784); test: biochemical; conditions: 200 pM enzyme, 10 µM Z-FR-AFC; for IC50: 50 mM sodium phosphate pH 7, 1 mM EDTA, 2 mM DTT, 30 °C, 15 min preincubation at room temperature, fluorescence, meaning of ± and n not given, read-out: IC50, inhibition of papain; for Inhibition of papain at 25 µM (in words): pH 7, 30 °C
T1 construct: purchased Sigma P4762-25MG
T1 sequence (P00784 134-345): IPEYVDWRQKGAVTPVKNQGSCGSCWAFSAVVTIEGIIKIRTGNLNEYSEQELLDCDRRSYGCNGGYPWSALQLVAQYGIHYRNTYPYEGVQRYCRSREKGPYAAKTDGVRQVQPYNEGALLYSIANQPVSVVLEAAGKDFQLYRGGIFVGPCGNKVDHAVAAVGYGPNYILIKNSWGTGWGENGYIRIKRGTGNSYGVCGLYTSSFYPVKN

[2] = target: T2, cathepsin B (Homo sapiens, UniProt P07858); test: biochemical; conditions: 192.4 pM enzyme, 20 µM Z-RR-4MBNA; for Inhibition of cathepsin B at 25 µM (in words): pH 6.0, 30 °C
T2 construct: purchased Athens research and technology 16-12-030102

[3] = target: T3, cathepsin L (Homo sapiens, UniProt P07711); test: biochemical; conditions: 200 pM enzyme, 10 µM Z-FR-AFC; for Inhibition of cathepsin L at 25 µM (in words): pH 5.5, 30 °C
T3 construct: purchased Athens research and technology 16-12-030112
T3 sequence (P07711 114-333): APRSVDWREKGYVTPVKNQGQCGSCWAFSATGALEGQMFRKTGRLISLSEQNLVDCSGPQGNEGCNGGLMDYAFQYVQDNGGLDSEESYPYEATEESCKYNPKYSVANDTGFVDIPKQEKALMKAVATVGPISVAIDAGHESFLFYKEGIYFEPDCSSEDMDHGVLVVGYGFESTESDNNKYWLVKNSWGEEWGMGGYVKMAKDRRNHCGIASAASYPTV

[4] = tested on: trypsin; assay type: biochemical; conditions: 500 pM enzyme, 10 µM Boc-QAR-AMC, Tris HCl pH 8, 30 °C
[5] = tested on: chymotrypsin; assay type: biochemical; conditions: 1 nM enzyme, 10 µM Suc-AAPF-AMC, Tris HCl pH 8, 30 °C
[6] = tested on: main protease from SARS CoV‐2 (M^pro); assay type: biochemical
[7] = tested on: proteases (trypsin, chymotrypsin, papain, cathepsin B, cathepsin L, ACE, M^pro); assay type: biochemical
[8] = target: T4, angiotensin I‐converting enzyme (ACE) (Oryctolagus cuniculus, UniProt P12822); assay type: biochemical; conditions: 0.4 mU/mL enzyme, 10 µM Abz-FRK(Dnp)-P-OH, pH 7.5, 37 °C
T4 construct: purchased Sigma A6778
T4 sequence (P12822 34-1310): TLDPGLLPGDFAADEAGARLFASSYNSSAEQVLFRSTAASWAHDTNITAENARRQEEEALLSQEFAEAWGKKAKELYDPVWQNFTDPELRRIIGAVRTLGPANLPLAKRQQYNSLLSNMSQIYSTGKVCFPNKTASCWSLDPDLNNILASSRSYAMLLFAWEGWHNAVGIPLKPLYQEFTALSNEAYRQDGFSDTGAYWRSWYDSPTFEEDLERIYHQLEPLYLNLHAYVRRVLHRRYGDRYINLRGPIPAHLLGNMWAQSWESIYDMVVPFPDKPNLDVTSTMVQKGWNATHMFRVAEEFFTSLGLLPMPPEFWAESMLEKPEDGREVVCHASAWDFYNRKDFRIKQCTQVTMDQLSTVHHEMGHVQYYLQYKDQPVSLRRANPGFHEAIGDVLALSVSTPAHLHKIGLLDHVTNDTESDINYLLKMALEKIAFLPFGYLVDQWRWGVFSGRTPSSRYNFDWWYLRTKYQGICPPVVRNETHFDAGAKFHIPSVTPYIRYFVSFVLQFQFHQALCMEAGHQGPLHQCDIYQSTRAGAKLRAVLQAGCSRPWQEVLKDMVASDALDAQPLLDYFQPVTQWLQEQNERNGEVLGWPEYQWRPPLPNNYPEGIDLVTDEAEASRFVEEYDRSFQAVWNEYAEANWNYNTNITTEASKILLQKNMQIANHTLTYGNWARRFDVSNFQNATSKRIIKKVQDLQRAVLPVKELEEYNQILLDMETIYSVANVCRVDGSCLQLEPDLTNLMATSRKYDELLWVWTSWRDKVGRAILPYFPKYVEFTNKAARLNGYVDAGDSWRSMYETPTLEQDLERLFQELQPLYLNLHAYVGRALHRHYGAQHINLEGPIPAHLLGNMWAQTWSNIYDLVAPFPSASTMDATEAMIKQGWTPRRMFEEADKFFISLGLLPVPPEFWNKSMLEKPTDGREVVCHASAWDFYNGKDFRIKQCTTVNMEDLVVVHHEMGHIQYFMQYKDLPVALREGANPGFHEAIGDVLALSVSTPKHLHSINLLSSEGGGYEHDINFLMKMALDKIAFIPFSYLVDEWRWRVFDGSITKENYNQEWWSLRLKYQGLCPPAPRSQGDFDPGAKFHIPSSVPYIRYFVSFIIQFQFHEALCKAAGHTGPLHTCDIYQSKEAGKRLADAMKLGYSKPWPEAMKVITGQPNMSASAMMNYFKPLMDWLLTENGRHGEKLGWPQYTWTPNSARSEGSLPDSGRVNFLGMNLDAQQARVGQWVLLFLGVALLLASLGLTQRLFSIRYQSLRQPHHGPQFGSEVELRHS

[9] = tested on: ApyO; assay type: biochemical, Burkholderia thailandensis E264; conditions: pH 7.5
[10] = tested on: ApyO; assay type: biochemical, Burkholderia thailandensis E264; conditions: pH 7.5; remark: listed apart in the source

Compound | Inhibition of cathepsin B at 25 µM (in words) [2] | Inhibition of cathepsin L at 25 µM (in words) [3] | Inhibition of papain at 25 µM (in words) [1] | Inhibition of trypsin at 25 µM (in words) [4] | Inhibition of chymotrypsin at 25 µM (in words) [5] | Inhibition of SARS CoV-2 Mpro at 25 µM (in words) [6] | other results
NCC(=O)N[C@H]1Cc2ccc(O)c(c2)Oc2ccc(cc2)C[C@@H](C(=O)N[C@@H](CC(=O)O)C(=O)O)NC(=O)[C@H](Cc2ccc(O)cc2)NC1=O (single isomer, unassigned) [L7Y isomer-2] | – | – | – | – | – | – | IC50 [1]: 11700 nM
CC(C)C[C@@H]1NC(=O)[C@@H](NC(=O)CN)Cc2ccc(O)c(c2)-c2cc(ccc2O)C[C@@H](C(=O)N[C@@H](C)C(=O)C(=O)O)NC1=O [desmethylaminopyruvatide A] | – | – | – | – | – | – | IC50 ([2]; 100 mM sodium phosphate pH 6.0, 1.33 mM EDTA, 2 mM DTT, 30 °C, 15 min preincubation at room temperature, fluorescence, readings every 60 s for 1 h, meaning of ± and n not given, read-out: IC50, inhibition of cathepsin B): 0.5 nM; IC50 ([3]; 50 mM sodium acetate pH 5.5, 2.5 mM EDTA, 2.5 mM DTT, 30 °C, 15 min preincubation at room temperature, fluorescence, meaning of ± and n not given, read-out: IC50, inhibition of cathepsin L): 0.6 nM; IC50 [1]: 0.3 nM; Inhibition of trypsin (in words) ([4]; test concentration not given): No inhibition; Inhibition of chymotrypsin (in words) ([5]; test concentration not given): No inhibition; Inhibition of SARS CoV-2 Mpro (in words) [6]: No inhibition; Protease inhibition, potency in words ([7]; Cys proteases / select proteases): nanomolar activity against Cys‐proteases; also recorded: subnanomolar inhibitory activity against clinically relevant Cys proteases; Specificity (in words) ([7]; cathepsin L, cathepsin B, papain versus trypsin, chymotrypsin, Mpro): specificity towards the papain family of Cys proteases
GWLYD (sidechain bridge or staple) [Y6W] | No inhibition was observed | No inhibition was observed | No inhibition was observed | No inhibition was observed | No inhibition was observed | No inhibition was observed | –
GYWYD (sidechain bridge or staple) [L7W isomer-2] | No inhibition was observed | No inhibition was observed | No inhibition was observed | No inhibition was observed | No inhibition was observed | No inhibition was observed | Inhibition of ACE at 25 µM (in words) [8]: weak inhibition; Inhibition of ACE at 25 µM ([8]; IC50 not determined): ~40%
GYYYD (sidechain bridge or staple) [L7Y isomer-1] | No inhibition was observed | No inhibition was observed | No inhibition was observed | No inhibition was observed | No inhibition was observed | No inhibition was observed | –
N‐terminally acetylated‐GRMGEGYLYD [Ac-ApyAct] | – | – | – | – | – | – | Km [9]: 80 ± 7 µM; kcat [9]: 1.63 and 1.63 ± 0.04
fMGEGYLYD | – | – | – | – | – | – | Modification by ApyO (in words) [10]: did not result in product formation
fMRMGEGYLYD [ApyAct] | – | – | – | – | – | – | Conversion of substrate by ApyO [10]: ~70%
